In patent publication EP1357114A1, “Substituted pyrimidin-2,4(1H,3H)-diones as inhibitors of Matrix Metalloproteinases (MMP)” (IBFB GmbH Privates Institut für biomedizinische Forschung …, priority 2002, dated 2003):

Legend:
Test in all cases: Quantitative fluorescence assay for matrix metalloproteinases (cleavage of Mca-Pro-Leu-Gly-Leu-Dpa-Ala-Arg-NH2)
Format in all cases: biochemical
MMP-9 = target: T1, MMP-9 (Homo sapiens, UniProt P14780)
T1 construct: Das latente Enzym wird durch 30 - 60 min; Inkubation bei 37°C mit 1/100 Vol. Trypsin (10 mg/ml) aktiviert; from tissue; host or cells: human buffy coat (blood leukocytes)
T1 sequence (P14780 107-707 limits assumed): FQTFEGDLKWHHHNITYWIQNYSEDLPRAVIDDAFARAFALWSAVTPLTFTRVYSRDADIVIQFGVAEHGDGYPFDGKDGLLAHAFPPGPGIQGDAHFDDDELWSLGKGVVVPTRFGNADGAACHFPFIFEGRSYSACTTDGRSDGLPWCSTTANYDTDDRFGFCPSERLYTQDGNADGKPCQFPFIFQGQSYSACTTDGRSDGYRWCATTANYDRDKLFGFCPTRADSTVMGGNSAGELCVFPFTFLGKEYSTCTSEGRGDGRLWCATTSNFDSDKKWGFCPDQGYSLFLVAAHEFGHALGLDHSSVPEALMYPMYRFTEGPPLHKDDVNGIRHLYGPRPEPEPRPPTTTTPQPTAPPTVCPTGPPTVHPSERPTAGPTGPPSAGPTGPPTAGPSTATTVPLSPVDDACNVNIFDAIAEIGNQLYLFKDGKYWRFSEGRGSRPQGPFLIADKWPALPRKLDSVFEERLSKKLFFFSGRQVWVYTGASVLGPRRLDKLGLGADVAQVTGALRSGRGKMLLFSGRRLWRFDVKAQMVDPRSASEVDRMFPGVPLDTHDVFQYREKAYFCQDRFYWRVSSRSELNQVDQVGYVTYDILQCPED
Method: Native MMP-9 wurde reproduzierbar und in guter Ausbeute und Reinheit aus humanem Buffy Coat gewonnen. Hierzu wird Buffy Coat mit 10% (v/v) Triton X-100 auf eine Endkonzentration von 0,4% gebracht, 30 min. auf Eis geschüttelt und dann 1 Vol. 2-fach Bindungspuffer (40 mM Tris-HCI pH 7,5, 10 mM CaCl2, 1 M NaCI, 0,2% (v/v) Triton X-100) hinzugefügt und weitere 30 min. auf Eis geschüttelt. Die Lösung wird 15 min. bei 16 000 Upm an einem SS-34 Rotor bei 4°C abzentrifugiert und über Glaswolle filtriert. Das Filtrat wird mit Gelatine-Agarose, welche mit Bindungspuffer äquilibriert wurde, gebatcht und 1 Std. auf Eis geschüttelt. Die beladene Gelatine-Agarose wird in eine Säule überführt und mit mindestens 10 Vol. Bindungspuffer proteinfrei gespült. Die Elution der gebundenen MMP-9 erfolgt mit 2 Gelvolumen Bindungspuffer plus 5% (v/v) DMSO. Das Eluat kann zum Puffer-Austausch und gleichzeitiger Abtrennung geringer Verunreinigungen an MMP-2 über eine Gelfiltration an Sephadex G-75 aufgetrennt werden. Hierzu wird der Puffer I (20 mM Tris-HCI pH 7,5, 5 mM CaCl2, 100 mM NaCI, 0,1% (v/v) Triton X-100) verwendet. Das so gewonnene Eluat enthällt MMP-9 in den drei bekannten Zustandsformen: Monomer, Homodimer, Heterodimer. Die Reinheit des Enzyms beträgt ca. 90%, wobei die restlichen Fremdproteine Fibronektin und äußerst geringe Mengen an TIMP's sind. Das latente Enzym wird durch 30 - 60 min. Inkubation bei 37°C mit 1/100 Vol. Trypsin (10 mg/ml) aktiviert. Trypsin wird durch Zugabe von 1 mM PMSF oder mit einem spezifischen Inhibitor (TKI) gehemmt.
(§1) Durch enzymatische Spaltung des synthetischen Substrates Mca-Pro-Leu-Gly-Leu-Dpa-Ala-Arg-NH2 durch die jeweilige Kollagenase, wird die fluoreszente Gruppe Mca ((7-Methoxycoumarin-4-yl)acetyl) vom internen Quencher Dpa ((N-3-(2,4-dinitrophenyl)-L-2,3-diaminopropienyl) getrennt. Dabei erfolgt eine starke Zunahme der Fluoreszenz im Messansatz, die am Fluorimeter quantifiziert werden kann (λex 328 nm, λem 393 nm) und innerhalb der ersten Minuten linear verläuft. Eine gewisse Spezifität des Tests für Matrix-Metalloproteinasen ergibt sich einerseits aus der Aminosäuresequenz -Pro-Leu-Gly-Leu- im Substrat und andererseits durch die gewählten Inkubationsbedingungen. Matrix-Metalloproteinasen spalten das Substrat an der Bindung Gly-Leu. Gemessen wird die proteolytische Restaktivität vorinkubierter Ansätze von Enzym und Inhibitor, wobei die Substrat- und Enzymkonzentration konstant gehalten und die Inhibitorkonzentration variiert wurde. Es wurden für jeden getesteten Inhibitor drei Messreihen mit unterschiedlicher Substratkonzentration aufgenommen. Aus der zeitabhängigen Fluoreszenzzunahme wird die Enzymaktivität in Fluoreszenzeinheiten pro min berechnet. Die Bestimmung der Ki-Werte erfolgte graphisch nach der Methode von DIXON (1953) durch Auftragung der reziproken Reaktionsgeschwindigkeit 1/v (y-Achse) gegen Inhibitorkonzentration (x-Achse).
(§2) 1984 µl Messpuffer (100mM Tris-HCI pH 7,5, 100 mM NaCI, 10 mM CaCl2, 0,05% Brij 35 bzw. 50 mM MES-NaOH, pH 6.0, 10 mM CaCl2, 100 mM NaCI, 0.05% Brij 35 im Fall der KaDo MMP-3) 2 µl Inhibitor, gelöst in DMSO, bzw. DMSO allein (nichtinhibierender Ansatz) 4 µl Enzym • 5 min. Vorinkubation des Enzym-Inhibitor-Gemischs bei Raumtemperatur unter Rühren • Start der Reaktion mit 10 µl Substrat gelöst in DMSO • Aufzeichnung der zeitabhängigen Fluoreszenzzunahme über 2 - 10 min.

[1] = target: T2, katalytische Domäne der MMP-3 (Homo sapiens, UniProt P08254); details: for Ki: Dixon plot
T2 construct: Die katalytische Domäne der humanen MMP-3 wurde nach den Angaben in folgender Publikation kloniert; made in house
T2 sequence (P08254 100-272 limits assumed): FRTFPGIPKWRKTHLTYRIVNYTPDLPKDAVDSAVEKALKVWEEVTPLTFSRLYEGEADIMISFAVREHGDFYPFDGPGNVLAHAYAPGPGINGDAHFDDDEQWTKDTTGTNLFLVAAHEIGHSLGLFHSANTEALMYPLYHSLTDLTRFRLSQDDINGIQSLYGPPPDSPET
Method: Die katalytische Domäne der humanen MMP-3 wurde nach den Angaben in folgender Publikation kloniert: Ye Q-Z, Johnson LL, Hupe DJ, Baragi V: Purification and Characterization of the Human Stromelysin Catalytic Domain Expressed in Escherichia coli. Biochemistry (1992), 31, 11231-11235). Nach Rückfaltung des Enzyms und Gelfiltration an Sephadex G-50 (Laufpuffer 100 mM Tris-HCI pH 7,5, 10 mM CaCl2, 100 mM NaCI, 0,05% Brij 35) erhielten wir ein zu 95% reines Präparat.
as §1, §2

[2] = target: T3, katalytische Domäne der MMP-8 (Homo sapiens, UniProt P22894)
T3 construct: dass wir statt des Gesamtenzyms nur dessen enzymatisch aktive katalytische Domäne in E. coli klonierten; made in house; host or cells: E. coli
T3 sequence (P22894 100-262 limits assumed): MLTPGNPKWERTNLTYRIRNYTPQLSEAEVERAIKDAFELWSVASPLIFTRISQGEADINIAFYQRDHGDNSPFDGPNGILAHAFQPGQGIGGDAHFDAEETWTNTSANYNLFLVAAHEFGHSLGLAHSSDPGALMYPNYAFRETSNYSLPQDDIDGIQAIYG
From the text: Die Nutzung der katalytischen Domäne der MMP-8 als weiteres Testenzym wurde deshalb gewählt, weil es eine hohe Stabilität besitzt und darüber hinaus als aktives Enzym vorliegt. Es muß deshalb nicht aktiviert werden, was eine der häufigsten Fehlerursachen darstellt, da die zur Aktivierung genutzten Quecksilberverbindungen häufig mit dem Testsystem bzw. dem Enzym interferieren und dadurch die Messergebnisse verfälschen werden. Die Klonierungsstrategie gestalteten wir so, dass wir statt des Gesamtenzyms nur dessen enzymatisch aktive katalytische Domäne in E. coli klonierten. Mit der konstruierten katalytischen Domäne der MMP-8 erzielten wir ein stabiles, enzymatisch aktives und hochreines Enzym, welches für die Routineuntersuchungen der inhibitorischen Aktivität der synthetisierten Inhibitoren sehr gut geeignet war und die Messergebnisse der einzelnen Messserien miteinander vergleichbar machte. Die Klonierung und Expression der katalytischen Domäne der MMP-8 wurde entsprechend den Angaben von SCHNIERER et al. (Schnierer S, Kleine T, Gote T, Hillemann A, Knäuper V, Tschesche H: The recombinant catalytic domain of human neutrophil collagenase lacks type I collagen substrate specificity. Biochem Biophys Res Comm (1993) vol. 191 No. 2, 319-326) durchgeführt.
as §1, §2

Row | SMILES | MMP-9 Hemmung (MMP-9; bei 10 µM) [% Hemmung bei 10 µM] | MMP-3 Hemmung ([1]; bei 10 µM) [% Hemmung bei 10 µM] | MMP-8 Hemmung ([2]; bei 10 µM) [% Hemmung bei 10 µM] | other results
1 | O=c1[nH]c2ccccc2c(=O)n1CC(S)CS (racemic) [Beispiel 1, (R,S)-3-(2,3-Dimercaptopropyl)chinazolin-2,4-(1H,3H)dion] | 70 | 70 | 70 | –
2 | O=c1[nH]c2cc(Cl)ccc2c(=O)n1CC(S)CS (racemic) [Beispiel 3, (R,S)-7-Chlor-3-(2,3-dimercaptopropyl)chinazolin-2,4-(1H,3H)dion] | 83 | 97 | 87 | –
3 | O=c1[nH]c2ccc(Cl)cc2c(=O)n1CC(S)CS (racemic) [Beispiel 4, (R,S)-6-Chlor-3-(2,3-dimercaptopropyl)chinazolin-2,4-(1H,3H)dion] | 50 | 15 | 60 | –
4 | Cc1cccc2[nH]c(=O)n(CC(S)CS)c(=O)c12 (racemic) [Beispiel 5, (R,S)-3-(2,3-Dimercaptopropyl)-5-methyl-chinazolin-2,4-(1H,3H)dion] | 70 | 90 | 70 | –
5 | COc1cc2[nH]c(=O)n(CC(S)CS)c(=O)c2cc1OC (racemic) [Beispiel 7, (R,S)-3-(2,3-Dimercaptopropyl)-6,7-dimethoxy-chinazolin-2,4-(1H,3H)dion] | – | – | – | MMP-9 Hemmung (MMP-9; bei 1 µM): 20% Hemmung bei 1 µM; Ki [1]: 1000 nM; MMP-8 Hemmung ([2]; bei 1 µM): 20% Hemmung bei 1 µM
6 | O=C(NCc1ccccc1)c1ccc2c(=O)n(CC(S)CS)c(=O)[nH]c2c1 (racemic) [Beispiel 8, (R,S)-N-Benzyl-3-(2,3-dimercaptopropyl)-2,4-dioxo-1,2,3,4-tetrahydrochinazolin-7-carboxamide] | – | – | – | MMP-9 Hemmung (MMP-9; bei 5 µM): 30% Hemmung bei 5 µM; MMP-3 Hemmung ([1]; bei 5 µM): 30% Hemmung bei 5 µM; MMP-8 Hemmung ([2]; bei 5 µM): 30% Hemmung bei 5 µM
7 | O=c1[nH]c2ccsc2c(=O)n1CC(S)CS (racemic) [Beispiel 9, (R,S)-3-(2,3-Dimercaptopropyl)thieno[3,2-d]pyrimidin-2,4(1H,3H)-dion] | – | – | – | MMP-9 Hemmung (MMP-9; bei 2,5 µM): 50% Hemmung bei 2,5 µM; Ki [1]: 250 nM; MMP-8 Hemmung ([2]; bei 2,5 µM): 50% Hemmung bei 2,5 µM
8 | O=c1[nH]c2sc3c(c2c(=O)n1CC(S)CS)CCCC3 (racemic) [Beispiel 10, (R,S)-3-(2,3-Dimercaptopropyl)-5,6,7,8-tetrahydro[1]benzothieno[2,3-d]pyrimidin-2,4(1H,3H)-dion] | 68 | 55 | 39 | –
9 | O=c1[nH]c2sc(-c3ccccc3)cc2c(=O)n1CC(S)CS (racemic) [Beispiel 11, (R,S)-3-(2,3-Dimercaptopropyl)-6-phenylthieno[2,3-d]pyrimidin-2,4(1H,3H)-dion] | – | – | – | MMP-9 Hemmung (MMP-9; bei 1 µM): 15% Hemmung bei 1 µM; MMP-3 Hemmung ([1]; result in words, concentration not given): Keine Hemmung; MMP-8 Hemmung ([2]; bei 1 µM): 30% Hemmung bei 1 µM
